# Measurements: BindingDB's records for PubMed 38943875 (Kurukshetra University)
# Target: T1, Alpha-amylase 1A (Homo sapiens, UniProt P0DUB6)
# T1 sequence (P0DUB6 whole entry): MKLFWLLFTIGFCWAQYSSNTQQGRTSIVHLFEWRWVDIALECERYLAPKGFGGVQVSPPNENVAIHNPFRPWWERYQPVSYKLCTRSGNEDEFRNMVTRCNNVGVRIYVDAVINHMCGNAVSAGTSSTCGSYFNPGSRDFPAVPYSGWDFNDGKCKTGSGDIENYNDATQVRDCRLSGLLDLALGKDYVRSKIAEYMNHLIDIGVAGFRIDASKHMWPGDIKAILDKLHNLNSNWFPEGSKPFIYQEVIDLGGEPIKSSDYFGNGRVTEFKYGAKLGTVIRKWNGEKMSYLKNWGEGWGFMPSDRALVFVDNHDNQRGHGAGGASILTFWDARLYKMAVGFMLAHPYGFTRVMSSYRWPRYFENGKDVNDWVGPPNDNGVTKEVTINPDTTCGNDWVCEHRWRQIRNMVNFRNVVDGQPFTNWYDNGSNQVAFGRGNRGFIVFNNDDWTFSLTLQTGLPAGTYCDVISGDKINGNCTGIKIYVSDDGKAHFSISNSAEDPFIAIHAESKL
# Experiment: Inhibition of alpha-amylase (unknown origin) using 1% starch as substrate preincubated for 30 mins followed by substrate addition and measured after 30 mins by colorimetric analysis
row,SMILES,IC50 [µM]
1,C#CCN1C(=O)SC(=CN(C)C)C1=O,139
2,Cc1cccc(-n2cc(CN3C(=O)SC(=CN(C)C)C3=O)nn2)c1,61
3,CN(C)C=C1SC(=O)N(Cc2cn(-c3ccc([N+](=O)[O-])cc3)nn2)C1=O,59
4,CN(C)C=C1SC(=O)N(Cc2cn(-c3ccccc3)nn2)C1=O,99
5,COc1ccc(-n2cc(CN3C(=O)SC(=CN(C)C)C3=O)nn2)cc1,53
6,CN(C)C=C1SC(=O)N(Cc2cn(-c3ccnc4cc(Cl)ccc34)nn2)C1=O,40
7,CN(C)C=C1SC(=O)N(Cc2cn(-c3ccc(F)cc3)nn2)C1=O,93
8,CN(C)C=C1SC(=O)N(Cc2cn(-c3cccc(Cl)c3)nn2)C1=O,66
9,CN(C)C=C1SC(=O)N(Cc2cn(-c3ccc(Cl)cc3)nn2)C1=O,98
10,CCCCn1cc(CN2C(=O)SC(=CN(C)C)C2=O)nn1,58
11,CN(C)C=C1SC(=O)N(Cc2cn(-c3ccccc3C(F)(F)F)nn2)C1=O,48
12,CN(C)C=C1SC(=O)N(Cc2cn(-c3cccc(C(F)(F)F)c3)nn2)C1=O,55
13,CN(C)C=C1SC(=O)N(Cc2cn(-c3ccc(C(F)(F)F)cc3)nn2)C1=O,84
14,CN(C)C=C1SC(=O)N(Cc2cn(-c3ccccc3Cl)nn2)C1=O,91
15,COc1cccc(-n2cc(CN3C(=O)SC(=CN(C)C)C3=O)nn2)c1,69
16,Cc1ccc(-n2cc(CN3C(=O)SC(=CN(C)C)C3=O)nn2)c(C)c1,48
17,Cc1ccc(C)c(-n2cc(CN3C(=O)SC(=CN(C)C)C3=O)nn2)c1,93
18,Cc1cc(C)cc(-n2cc(CN3C(=O)SC(=CN(C)C)C3=O)nn2)c1,66
19,COc1ccccc1-n1cc(CN2C(=O)SC(=CN(C)C)C2=O)nn1,65
20,CN(C)C=C1SC(=O)N(Cc2cn(-c3cccc(Cl)c3Cl)nn2)C1=O,60
21,CCc1ccc(-n2cc(CN3C(=O)SC(=CN(C)C)C3=O)nn2)cc1,68
22,CCc1ccccc1-n1cc(CN2C(=O)SC(=CN(C)C)C2=O)nn1,49
23,CC(C)c1ccc(-n2cc(CN3C(=O)SC(=CN(C)C)C3=O)nn2)cc1,54
24,CN(C)C=C1SC(=O)N(Cc2cn(Cc3ccccc3)nn2)C1=O,80
25,CN(C)C=C1SC(=O)N(Cc2cn(Cc3ccc(Cl)cc3Cl)nn2)C1=O,45
26,CN(C)C=C1SC(=O)N(Cc2cn(CC(=O)c3ccc(Br)cc3)nn2)C1=O,78
